The values that follow come from patent US20190261630A1, “USE OF PYRAZIFLUMID FOR CONTROLLING SCLEROTINIA SPP IN SEED TREATMENT APPLICATIONS” (Bayer CropScience Aktiengesellschaft, priority 2016, published 2019).

SMILES strings stand for the structures. Read-outs that look alike come from different tables or passages of the source.

What all share (type): in vivo
The test system of series [1] is soybean plants. Put plainly: Damage on plants after seed treatment, relative growth inhibition in non-inoculated plants (Example A, Tests 1-6). As for the experimental part: (§1) The test is performed under greenhouse conditions.
(§2) Soybean seeds, treated to the desired dosages with the active compound solved in N-methyl-2-pyrrolidon and diluted with water, were sown in 6×6 cm pots (one seed per pot) filled with 1:1 mixture of steamed loam soil and quartz sand.
(§3) The plants were grown at 24° C. and 90% relative humidity in a greenhouse. Ascospores of Sclerotinia sclerotiorum were collected from 3 month old asci. Whole aerial surface of 19-25-day-old seedlings were sprayed with water suspension of the ascospores. The plants were kept for 48-96 hours in the dark at 24° C. and a relative humidity of 99%.

The test system of series [2] is Sclerotinia sclerotiorum. Briefly: Seed treatment test, control efficacy against ascospore infection in soybean, greenhouse (Example A, Tests 1-6). As to conditions: for pest or weed control at 25 g/100 kg seed: soybean seed treatment 25 g a.i./100 kg seed; for pest or weed control at 50 g/100 kg seed: soybean seed treatment 50 g a.i./100 kg seed; for pest or weed control at 70 g/100 kg seed / pest or weed control at 140 g/100 kg seed / pest or weed control at 35 g/100 kg seed: read-out: Sclerotinia sclerotiorum Control efficacy %; for pest or weed control at 10 g/100 kg seed: soybean seed treatment 10 g a.i./100 kg seed. The method, then:
as §1, §2, §3
(§4) Assessment consisted of evaluation of infected area of the unifoliate leaves. Zero % means infection which corresponds to that of the untreated check, while an efficacy of 100% means that no infection was observed.
The control efficacy is based on % infected leaf area.
Moreover, the tests were performed with different batches of plants.

Series [3] concerns Sclerotinia sclerotiorum. Put plainly: Spray test (dwarf beans), preventive control efficacy (Example B, Test 7). As to conditions: spray treatment 100 mg ai/Liter, dwarf bean, 10 days old plants, incubation 3 days. The method, then: (§5) Solvent: 24.5 parts by weight of acetone • 24.5 parts by weight of dimethylacetamide
(§6) Emulsifier: 1 part by weight of alkylaryl polyglycol ether
(§7) To produce a suitable preparation of active compound, 1 part by weight of active compound is mixed with the stated amounts of solvent and emulsifier, and the concentrate is diluted with water to the desired concentration.
(§8) To test for preventive activity, unifoliate leaves of 10 day-old plants are sprayed with the preparation of active compound. After the spray coating has dried on, 2 small pieces of agar covered with growth of Sclerotinia sclerotiorum are placed on each leaf. The inoculated plants are placed in a darkened chamber at approximately 20° C. and a relative atmospheric humidity of 100%.
3 days after the inoculation, the size of the lesions on the leaves is evaluated. 0% means an efficacy which corresponds to that of the untreated control, while an efficacy of 100% means that no disease is observed.

The subject of series [4] is dwarf beans. Put plainly: Damage on plants in spray test (Example B, Test 7). Particulars: spray treatment 100 mg ai/Liter, dwarf bean. As for the experimental part:
as §5, §6, §7, §8

Series [5] relates to Sclerotinia sclerotiorum. Put plainly: Seed treatment test (soybean) with current standards, control efficacy (Example B, Test 8). Particulars: soybean seed treatment 50 g a.i./100 kg seed, incubation 3 days, inoculation 27 days after sowing. As for the experimental part: as §2
(§9) The plants were grown at 24° C. and 90% relative humidity in a greenhouse. Ascospores of Sclerotinia sclerotiorum were collected from 3 month old asci. Whole aerial surface of 27 day-old seedlings were sprayed with water suspension of the ascospores. The plants were kept for 72 hours in the dark at 24° C. and a relative humidity of 99%.
as §4

In series [6] the test system is soybean plants. Put plainly: Damage on plants after seed treatment, emergence inhibition (Example B, Test 8). Particulars: soybean seed treatment 50 g a.i./100 kg seed. As for the experimental part:
as §2, §9

The mark [7] stands for this setting: Test 1, soybean seed treatment 25 g a.i./100 kg seed.
[8] abbreviates: Test 1, soybean seed treatment 50 g a.i./100 kg seed.
Setting [9] is: Sclerotinia sclerotiorum, 72 h, Test 1, incubation 3 days, inoculation 19 days after sowing.
Setting [10] is: Sclerotinia sclerotiorum, 96 h, Test 4, incubation 4 days, inoculation 25 days after sowing.
[11] abbreviates: Sclerotinia sclerotiorum, 48 h, Test 3, incubation 2 days, inoculation 20 days after sowing.
The mark [12] stands for this setting: Sclerotinia sclerotiorum, 72 h, Test 6, incubation 3 days, inoculation 22 days after sowing.
[13] abbreviates: Test 3, soybean seed treatment 70 g a.i./100 kg seed.
Setting [14] is: Test 6, soybean seed treatment 70 g a.i./100 kg seed.
[15] abbreviates: Sclerotinia sclerotiorum, 48 h, Test 5, incubation 2 days, inoculation 21 days after sowing.
The mark [16] stands for this setting: Example A, soybean seed treatment.
[17] abbreviates: Test 6, soybean seed treatment 140 g a.i./100 kg seed.
Setting [18] is: Sclerotinia sclerotiorum, 48 h, Test 3, soybean seed treatment 70 g a.i./100 kg seed, incubation 2 days, inoculation 20 days after sowing.
The mark [19] stands for this setting: Sclerotinia sclerotiorum, 48 h, Test 3, soybean seed treatment 140 g a.i./100 kg seed, incubation 2 days, inoculation 20 days after sowing.
The mark [20] stands for this setting: Sclerotinia sclerotiorum, 72 h, Test 6, soybean seed treatment 70 g a.i./100 kg seed, incubation 3 days, inoculation 22 days after sowing.
[21] abbreviates: Sclerotinia sclerotiorum, 72 h, Test 6, soybean seed treatment 140 g a.i./100 kg seed, incubation 3 days, inoculation 22 days after sowing.

Turning to `CC(C)ON=C(CNC(=O)c1ccccc1C(F)(F)F)c1ncc(Cl)cc1Cl`, the “Damage on plants (relative growth inhibition in non-inoculated plants compared to untreated plants: in %)” value in series [1] (setting [7]) and in series [1] (setting [8]) was 0% throughout. The compound further displayed a pest or weed control at 25 g/100 kg seed in series [2] (setting [9]) of 5%. In addition, the pest or weed control at 50 g/100 kg seed in series [2] (setting [9]) was 53%.
For the compound `Cc1nc2c(F)c(F)ccc2cc1Oc1cccc(F)c1C(C)(C)O`, in series [2] (Sclerotinia sclerotiorum, 96 h), the pest or weed control at 70 g/100 kg seed came out at 0% and the pest or weed control at 140 g/100 kg seed was determined as 99%.
`O=S(=O)(Nc1ncc(C(F)(F)F)cc1Cl)c1ccccc1Cl`: the “Damage on plants (relative growth inhibition in non-inoculated plants compared to untreated plants: in %)” value in series [1] (Test 4, soybean seed treatment 10 g a.i./100 kg seed) came to 17%; in series [1] (Test 4, soybean seed treatment 50 g a.i./100 kg seed), 8%. Further, the pest or weed control at 10 g/100 kg seed in series [2] (setting [10]) came out at 73%. This compound also came in with a pest or weed control at 50 g/100 kg seed in series [2] (setting [10]) of 70%.
In the case of `O=c1c2cc(F)ccc2nc(-n2cncn2)n1-c1ccc(Cl)cc1Cl` [Fluquinconazole], the “Damage on plants (relative growth inhibition in non-inoculated plants compared to untreated plants: in %)” value came to 0% in series [1] (Test 3, soybean seed treatment 25 g a.i./100 kg seed); 0% in series [1] (Test 3, soybean seed treatment 50 g a.i./100 kg seed); 0% in series [1] (Test 6, soybean seed treatment 25 g a.i./100 kg seed); 0% in series [1] (Test 6, soybean seed treatment 50 g a.i./100 kg seed). The pest or weed control at 25 g/100 kg seed in series [2] (setting [11]) was 83%; in series [2] (setting [12]), 0%. The pest or weed control at 50 g/100 kg seed came out at 86% in series [2] (setting [11]) and 2% in series [2] (setting [12]).
For `N#Cc1ccccc1NC(=O)c1snc(Cl)c1Cl` [Isotianil], the “Damage on plants (relative growth inhibition in non-inoculated plants compared to untreated plants: in %)” value in series [1] (Test 3, soybean seed treatment 35 g a.i./100 kg seed) is listed as 11%; in series [1] (setting [13]) it was 0%; in series [1] (Test 6, soybean seed treatment 35 g a.i./100 kg seed) it was 0%; in series [1] (setting [14]), 0%. Also, the pest or weed control at 35 g/100 kg seed is 46% in series [2] (Sclerotinia sclerotiorum, 48 h) and 15% in series [2] (Sclerotinia sclerotiorum, 72 h). Moreover, the pest or weed control at 70 g/100 kg seed in series [2] (Sclerotinia sclerotiorum, 48 h) worked out at 65%; in series [2] (Sclerotinia sclerotiorum, 72 h), 18%.
Take `CC(O)(Cn1cncn1)c1ccc(Oc2ccc(Cl)cc2)cc1C(F)(F)F` (centres unmarked) [Mefentrifluconazole]: the “Damage on plants (relative growth inhibition in non-inoculated plants compared to untreated plants: in %)” value in series [1] (Test 5, soybean seed treatment 10 g a.i./100 kg seed) came to 0%; in series [1] (Test 5, soybean seed treatment 25 g a.i./100 kg seed) it was 10%. Also, the pest or weed control at 10 g/100 kg seed in series [2] (setting [15]) worked out at 90%. Also, the pest or weed control at 25 g/100 kg seed in series [2] (setting [15]) was determined as 84%.
Take `O=C(Nc1ccccc1-c1ccc(F)c(F)c1)c1nccnc1C(F)(F)F` [Pyraziflumid]: the “damage on soybean plants (in words)” value in series [1] (setting [16]) was “without giving any damage”. The “Damage on plants (relative growth inhibition in non-inoculated plants compared to untreated plants: in %)” value is 0% in series [1] (setting [7]); 0% in series [1] (setting [8]); 0% in series [1] (Test 2, soybean seed treatment 70 g a.i./100 kg seed); 0% in series [1] (Test 2, soybean seed treatment 140 g a.i./100 kg seed); 0% in series [1] (setting [13]); 0% in series [1] (Test 3, soybean seed treatment 140 g a.i./100 kg seed). In addition, the “Damage on plants (relative growth inhibition in non-inoculated plants compared to untreated plants: in %)” value in series [1] (Test 4, soybean seed treatment 70 g a.i./100 kg seed) came to 0%; in series [1] (Test 4, soybean seed treatment 140 g a.i./100 kg seed), 0%; in series [1] (Test 5, soybean seed treatment 75 g a.i./100 kg seed) it was 0%; in series [1] (setting [14]), 0%; in series [1] (setting [17]), 30%. For the same compound, the “control efficacy against ascospore infection of Sclerotinia Sclerotiorum (in words)” value in series [2] (setting [16]) is “excellent control efficacy”. The pest or weed control at 70 g/100 kg seed was 87% in series [2] (setting [18]); 36% in series [2] (setting [20]); 58% in series [2] (Sclerotinia sclerotiorum, 96 h, Test 2, soybean seed treatment 70 g a.i./100 kg seed, incubation 4 days, inoculation 22 days after sowing); 80% in series [2] (Sclerotinia sclerotiorum, 96 h, Test 4, soybean seed treatment 70 g a.i./100 kg seed, incubation 4 days, inoculation 25 days after sowing). Moreover, the pest or weed control at 140 g/100 kg seed in series [2] (setting [19]) worked out at 95%; in series [2] (setting [21]) it was 33%; in series [2] (Sclerotinia sclerotiorum, 96 h, Test 2, soybean seed treatment 140 g a.i./100 kg seed, incubation 4 days, inoculation 22 days after sowing) it was 86%; in series [2] (Sclerotinia sclerotiorum, 96 h, Test 4, soybean seed treatment 140 g a.i./100 kg seed, incubation 4 days, inoculation 25 days after sowing), 90%. In series [2] (Sclerotinia sclerotiorum, 48 h, Test 5, soybean seed treatment 75 g a.i./100 kg seed, incubation 2 days, inoculation 21 days after sowing), the pest or weed control at 75 g/100 kg seed was 98%. Besides, the pest or weed control at 25 g/100 kg seed in series [2] (setting [9]) was 96%. In series [2] (setting [9]), this compound returned a pest or weed control at 50 g/100 kg seed of 95%.
`CC1(C)N=C(c2cnc3ccccc3c2)c2ccccc2C1(F)F` [Quinofumelin]: the “Damage on plants (relative growth inhibition in non-inoculated plants compared to untreated plants: in %)” value in series [1] (setting [14]) and in series [1] (setting [17]) was 0% in each case. In addition, the pest or weed control at 70 g/100 kg seed in series [2] (setting [20]) was 16%. The pest or weed control at 140 g/100 kg seed in series [2] (setting [21]) worked out at 1%.
`CC1(C)N=C(c2cnc3ccccc3c2)c2ccccc2C1(F)F` [drawing 23]: in series [2] (setting [18]), the pest or weed control at 70 g/100 kg seed amounted to 72%. Besides, the pest or weed control at 140 g/100 kg seed in series [2] (setting [19]) was 96%.
In the case of `O=C(NCCc1ncc(C(F)(F)F)cc1Cl)c1ccccc1C(F)(F)F` [fluopyram], the “Sclerotinia sclerotiorum Control efficacy %” value is recorded as 100% in series [3] and 68% in series [5]. In addition, the “Damage on plants (in %)” value in series [4] was found to be 0%. In addition, in series [6], the “Damage on plants (emergence inhibition in %)” value came to 25%.
As for `CON(C(=O)c1cn(C)nc1C(F)F)C(C)Cc1c(Cl)cc(Cl)cc1Cl` (centres unmarked) [pydiflumetofen], the “Sclerotinia sclerotiorum Control efficacy %” value is on record as 100% in series [3] and 0% in series [5]. Also, the “Damage on plants (in %)” value in series [4] came out at 0%. Also, in series [6], the “Damage on plants (emergence inhibition in %)” value came to 0%.
